Values joined by “and” are separate entries in the source; they are usually repeats but may differ in a detail not shown here. Identical values can stand only once.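 In this assay, cells in 96-well plates receive the compound at five concentrations for 48 hours. Endpoints are linearly interpolated between the surrounding concentrations. GI50 = concentration required for 50% inhibition of growth. TGI denotes the concentration required for complete inhibition of growth.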
Tests used:
Assay in all cases: NCI tumour cell line growth inhibition, 48 h
[1] = system: CCRF-CEM leukemia
[2] = system: HCT-116 colon
[3] = system: HCT-15 colon
[4] = system: HS 578T breast
[5] = system: K-562 leukemia
[6] = system: KM12 colon
[7] = system: MCF7 breast
[8] = system: OVCAR-4 ovarian
[9] = system: SR leukemia
[10] = system: U251 CNS

SMILES	GI50 [1]	TGI [1]	GI50 [2]	TGI [2]	GI50 [3]	TGI [3]	GI50 [4]	TGI [4]	GI50 [5]	TGI [5]	GI50 [6]	TGI [6]	GI50 [7]	TGI [7]	GI50 [8]	TGI [8]	GI50 [9]	TGI [9]	GI50 [10]	TGI [10]
COc1ccc2c(c1)c(-c1ccc(-c3cn(C)c4ccc(OC)cc34)[nH]1)cn2C	2030 nM	5.8 µM	3040 nM	12.7 µM	1.84 µM	3.91 µM	1.36 µM	4.24 µM	1480 nM	6.8 µM	2750 nM	9.59 µM	5180 nM	24.4 µM	1940 nM	4.01 µM	1310 nM	4.01 µM	1400 nM	3.52 µM
COc1ccc(-c2cc(-c3cccc(NS(C)(=O)=O)c3)nc(N)c2C#N)cc1	87.5 nM	> 100 µM	49.6 nM	8.73 µM	0.108 µM	19.4 µM	0.0468 µM	2.39 µM	54.1 nM	> 100 µM	118 nM	9.12 µM	348 nM	25.3 µM	1240 nM	99.6 µM	47 nM	25.7 µM	57.7 nM	19.3 µM
COc1cccc(CCC(=O)c2cc3c(N)c(C(=O)Nc4cccc(Cl)c4C)sc3nc2C)c1	437 nM	> 100 µM	448 nM	> 100 µM	0.433 µM	> 100 µM	0.343 µM	–	396 nM	> 100 µM	502 nM	> 100 µM	336 nM	> 100 µM	1560 nM	> 100 µM	431 nM	> 100 µM	445 nM	> 100 µM
COc1cc2c3c(n(CCCBr)c(=O)c2cc1OC)-c1ccc(F)cc1C3=O	1990 nM	8.94 µM	5720 nM	30.6 µM	48.7 µM	> 100 µM	32 µM	> 100 µM	16300 nM	> 100 µM	35300 nM	> 100 µM	4100 nM	> 100 µM	40000 nM	> 100 µM	280 nM	1.73 µM	3740 nM	24.3 µM
CCC1(NC(=O)c2cc(F)c(F)c(F)c2F)C(=O)NC(=O)N(C(C)C)C1=O (stereo not drawn)	19800 nM	75.3 µM	22500 nM	51.5 µM	8.05 µM	> 100 µM	12 µM	37.2 µM	3540 nM	19.3 µM	> 100000 nM	> 100 µM	> 100000 nM	> 100 µM	> 100000 nM	> 100 µM	2980 nM	9.65 µM	25600 nM	91.3 µM
Nc1c(C(=O)N/N=C/c2ccc(-c3cc(Cl)c(Cl)cc3Cl)o2)cnn1-c1ccnc2c(C(F)(F)F)cccc12	3900 nM	> 100 µM	3420 nM	> 100 µM	3.43 µM	> 100 µM	5.04 µM	> 100 µM	3000 nM	> 100 µM	3830 nM	> 100 µM	3420 nM	> 100 µM	2600 nM	9.4 µM	4530 nM	72.9 µM	4180 nM	> 100 µM
Nc1ccc(C(OC(=O)c2cc3ccccc3c(Cc3c(O)c(C(=O)OC(c4ccc(N)cc4)(c4ccc(N)cc4)c4ccc(N)cc4)cc4ccccc34)c2O)(c2ccc(N)cc2)c2ccc(N)cc2)cc1	3030 nM	> 100 µM	784 nM	11.4 µM	4.01 µM	> 100 µM	0.201 µM	0.867 µM	682 nM	> 100 µM	608 nM	12.7 µM	623 nM	12.4 µM	2030 nM	56.6 µM	4180 nM	> 100 µM	248 nM	12.6 µM
CC1(C)CC([P+](c2ccccc2)(c2ccccc2)c2ccccc2)=NN1	8360 nM	> 100 µM	3040 nM	> 100 µM	> 100 µM	> 100 µM	4.96 µM	> 100 µM	3550 nM	> 100 µM	1890 nM	45.9 µM	2460 nM	> 100 µM	3070 nM	> 100 µM	1200 nM	5.51 µM	2000 nM	> 100 µM
c1ccc(B2OCC(C3OB(c4ccccc4)OC4COB(c5ccccc5)OC43)O2)cc1 (stereo not drawn)	–	> 100 µM	–	> 100 µM	–	> 100 µM	–	> 100 µM	–	> 100 µM	–	> 100 µM	–	> 100 µM	–	> 100 µM	–	> 100 µM	–	> 100 µM
O=C(N/N=C/c1ccc(Cl)cc1Cl)c1ccc2nc(-c3ccc(Cl)cc3)[nH]c2c1	1430 nM	9.03 µM	1450 nM	3.51 µM	1.42 µM	3.03 µM	2.28 µM	5.27 µM	969 nM	3.23 µM	2030 nM	4.46 µM	1150 nM	2.56 µM	1740 nM	3.29 µM	1010 nM	3.95 µM	2100 nM	4.18 µM
CN(C)CCCCn1ccc2c1C(=O)c1c(c(O)c3ccccc3c1O)C2=O	1320 nM	4.54 µM	9030 nM	21.1 µM	16 µM	29.4 µM	33.1 µM	60.9 µM	1780 nM	4.07 µM	10400 nM	24.4 µM	11300 nM	28.4 µM	19600 nM	43.1 µM	4360 nM	23.6 µM	17900 nM	31.7 µM
Cn1cnc2c(F)c(Nc3ccc(Br)cc3F)c(C(=O)NOCCO)cc21	> 100000 nM	> 100 µM	203 nM and 317 nM	> 100 µM	57.5 µM	> 100 µM	> 2.14 µM and 33.6 µM	> 100 µM	1330 nM and 10800 nM	> 100 µM	264 nM and 445 nM	> 100 µM	> 100000 nM	> 100 µM	8060 nM	> 100 µM	> 47000 nM	> 100 µM	7780 nM	> 100 µM
Cc1ncc(C(=O)Nc2ccc(CN3CCN(C)CC3)c(C(F)(F)F)c2)cc1C#Cc1c(N)ncc2ccccc12	494 nM	1.35 µM	159 nM	0.62 µM	0.382 µM	0.873 µM	0.356 µM	1.26 µM	3.32 nM	0.453 µM	4.44 nM	0.479 µM	378 nM	0.913 µM	515 nM	2.08 µM	260 nM	1.04 µM	539 nM	1.07 µM
Nc1nccc2c1ncn2C1OC(CO)C(O)C1O (stereo not drawn)	> 100000 nM	> 100 µM	39200 nM	> 100 µM	75.8 µM	> 100 µM	> 100 µM	> 100 µM	> 100000 nM	> 100 µM	54500 nM	> 100 µM	52000 nM	> 100 µM	> 100000 nM	> 100 µM	41600 nM	> 100 µM	> 100000 nM	> 100 µM
COc1cccc(N=N/C(=N\NC(=O)c2cc(Br)ccc2O)c2ccc(N(CCC#N)CCC#N)cc2OC)c1	53.7 µg/mL	> 150 µg/mL	46.4 µg/mL	> 150 µg/mL	52 µg/mL	> 150 µg/mL	48.9 µg/mL	> 150 µg/mL	25.4 µg/mL	> 150 µg/mL	26.9 µg/mL	83.4 µg/mL	43.7 µg/mL	> 150 µg/mL	17.5 µg/mL	60.9 µg/mL	71.4 µg/mL	> 150 µg/mL	34.4 µg/mL	> 150 µg/mL
C[C@@H](COCCC(=O)N1CCN(c2ncc(C(F)(F)F)cn2)CC1)Nc1cn[nH]c(=O)c1C(F)(F)F	15000 nM	> 100 µM	40300 nM	> 100 µM	> 100 µM	> 100 µM	50.7 µM	> 100 µM	36900 nM	> 100 µM	> 100000 nM	> 100 µM	31200 nM	> 100 µM	27800 nM	> 100 µM	4040 nM	> 100 µM	29300 nM	> 100 µM
C=C1C(OC/C=C/COC2O[C@@H]3O[C@@]4(C)CC[C@H]5[C@H](C)CC[C@@H](C2=C)[C@@]35OO4)O[C@@H]2O[C@@]3(C)CC[C@H]4[C@H](C)CC[C@@H]1[C@@]24OO3 (stereo partly drawn)	32.5 nM	> 40 µM	90.7 nM	16.6 µM	< 0.0194 µM	16 µM	12.6 µM	59.6 µM	94.9 nM	> 67.3 µM	< 24 nM	0.778 µM	80.1 nM	16.2 µM	741 nM	26.2 µM	31.5 nM	2.6 µM	12100 nM	25.7 µM
CCOC(=O)C(C(=O)OCC)C(=O)c1ccccc1C(=O)c1ccccc1	–	> 100 µM	–	> 100 µM	–	> 100 µM	–	> 100 µM	–	> 100 µM	–	> 100 µM	–	> 100 µM	–	> 100 µM	–	48.8 µM	–	> 100 µM
COc1ccc(Cn2cc3c(c2-c2cc(OC)c(OC)c(OC)c2)CCc2cnoc2-3)cc1N	38.4 nM	–	45 nM	2.84 µM	0.0454 µM	> 100 µM	0.0343 µM	> 100 µM	35.1 nM	> 100 µM	40.1 nM	1.94 µM	36 nM	> 40 µM	103 nM	> 100 µM	32 nM	1.39 µM	52.3 nM	> 100 µM
NS(=O)(=O)c1ccc(-n2ncc3c(Nc4ccccc4)ncnc32)cc1	17700 nM	92.5 µM	27400 nM	> 100 µM	19.1 µM	> 100 µM	33.8 µM	> 100 µM	4440 nM	37.7 µM	9630 nM	46.7 µM	49200 nM	> 100 µM	32100 nM	> 100 µM	29600 nM	> 100 µM	26900 nM	> 100 µM
COC(=O)[C@H](C)NC(=O)[C@@H](OC)[C@@H]1Cc2cc3cc(OC4CC(OC5CC(O)C(O)C(C)O5)C(O)C(C)O4)c(C)c(O)c3c(O)c2C(=O)[C@H]1OC1CC(OC2CC(OC3CC(C)(O)C(O)C(C)O3)C(O)C(C)O2)C(O)C(C)O1 (stereo partly drawn)	147 nM	> 50 µM	24.5 nM	> 50 µM	0.41 µM	> 50 µM	0.0983 µM	2.17 µM	179 nM	> 50 µM	94.4 nM	> 50 µM	23.6 nM	> 50 µM	163 nM	3.43 µM	27.1 nM	> 50 µM	73 nM	> 50 µM
CCNNC(=O)[C@@H]1[C@H](c2cc(OC)c(OC)c(OC)c2)c2cc3c(cc2[C@H](O)[C@H]1CO)OCO3	316 nM	> 100 µM	354 nM	> 100 µM	0.398 µM	> 100 µM	0.376 µM	> 100 µM	349 nM	> 100 µM	387 nM	> 100 µM	360 nM	> 100 µM	2370 nM	> 100 µM	315 nM	> 100 µM	321 nM	> 100 µM
CN(CC(=O)O)Cc1oc(CO)cc(=O)c1O	–	> 100 µM	–	> 100 µM	–	> 100 µM	–	> 100 µM	–	> 100 µM	–	> 100 µM	–	> 100 µM	–	> 100 µM	–	> 100 µM	–	> 100 µM
Cc1nc2c(N3CCCC3)nc(N3CCNCC3)nc2nc1NCc1ccccc1	4650 nM	11 µM and 6.27 µM	3960 nM	13.4 µM and 11.3 µM	4.17 µM	8.9 µM and 4.53 µM	7.4 µM	17 µM and 18.7 µM	1060 nM	23.8 µM	6530 nM	26.6 µM and 13.3 µM	5990 nM	13.3 µM and 5.92 µM	5570 nM	11.7 µM and 21.7 µM	1530 nM	20 µM and > 20.8 µM	4270 nM	11.7 µM and 13 µM
